The values below come from patent publication US20140256793A1, “MEDICAMENT FOR DISEASES ASSOCIATED WITH AMYLOID beta AND SCREENING THEREOF” (National University Corporation Hokkaido University, priority 2011, published 2014).

Data set [1] has as its system N2a cells. As to the kind of experiment: Measurement of exosome release from N2a cells after siRNA, C6-ceramide or bacterial SMase treatment (Western blot). Format: cell-based, murine. As to conditions: for exosome release / secretion after siRNA knockdown: Stealth RNAi siRNA, Western blot of exosome markers; for ratio of amount of Alix compared with a control: siRNA knockdown, exosome fraction. As to the method:
(§1) As previously described (Thery C et al., Curr Protoc Cell Biol Chapter: Unit 3.22 (2006)), exosomes were prepared from culture supernatants of N2a and murine primary cultured cortical nerve cells. The culture medium was replaced with a serum-free medium on the day before the preparation of exosomes. The cell culture supernatants were collected after 24 hours and sequentially centrifuged at 3,000×g for 10 minutes, at 4,000×g for 10 minutes, and at 10,000×g for 30 minutes to remove cells, dead cells, and cell fragments, and then spun down again at 100,000×g for one hour to obtain exosomes as pellets.
(§2) Treatment with imipramine (10 μM), GW4869 (10 μM), D609 (50 μM) C6-ceramide (50 μM) or bacterial SMase (100 μU/ml) was performed for 24 hours in a serum-free medium.
For RNA-mediated interference (RNAi) experiments, the inventors used Stealth RNAi™ siRNA (Invitrogen) with the following sequences:
Stealth™ Control RNA was obtained from Invitrogen SiRNA was delivered according to the manufacturer's protocol by using a Lipofectamine™ transfection reagent (Invitrogen).
(§3) Exosome pellets purified from cultures of 5×10^6 cells were solubilized with Laemmli buffer (Laemmli U K, Nature (1970) 227: 680-685) and subjected to SDS-PAGE and Western blotting. Blots were probed with a primary antibody and then probed with an HRP-conjugated secondary antibody. Bands were detected and analyzed using a combination of an ECL Plus kit (GE Healthcare) and an LAS4000 (Fujifilm Corporation).

Data set [2] deals with Aβ. Description: Thioflavin T test of Aβ amyloid fibril formation with exosomes. Format: biochemical, human. Conditions: exosomes from inhibitor- or siRNA-treated cells mixed with 25 μM Aβ42, five hours at 37° C. As to the method: A seed-free Aβ solution was prepared essentially according to the previous report (Naiki H et al., Methods Enzymol (1999) 309: 305-318). Briefly stated, synthetic Aβ40 and Aβ42 were dissolved in a 0.02% ammonium solution at 500 μM and 300 μM, respectively. In order to remove undissolved Aβ aggregates that can act as pre-existing seeds, the prepared solution was centrifuged at 540,000×g for three hours at 4° C. The obtained supernatant was collected and stored at −80° C. until use.
Seed free Aβ (25 μM) was incubated in 100 μl of TBS comprising 0 μl, 1 μl, or 10 μl of exosome solution at 37° C. 1 μl of exosome solution was collected from culture supernatants of 1×10^6 cells. As described in the prior art document (Naiki H et al., Methods Enzymol (1999)309:305-318), fluorescence intensity of ThT in the mixture was measured using an Appliskan spectrofluorophotometer (Thermo Fisher Scientific). The optimal fluorescence intensities of amyloid fibrils were measured at an excitation wavelength of 446 nm and fluorescent wavelength of 490 nm by using a reaction mixture comprising 5 μM ThT and 50 mM glycine/NaOH with pH of 8.5.

The subject of data set [3] is N2a cells and BV-2 cells. As to the kind of experiment: Transwell experiment: N2a-APP cells with BV-2 cells, Aβ levels by ELISA. Format: cell-based, murine. As to conditions: for extracellular Aβ levels: no BV-2 cells on the lower wells, N2a-APP cells treated with siRNA. As to the method:
Aβ40 and Aβ42 levels were measured by using a sandwich enzyme-linked immunosorbent assay (ELISA) kit from Wako. Aggregated Aβs both in medium and cells were solubilized with 4 M guanidine-HCl buffer for 2 hours at room temperature and then were subjected to ELISA. All samples were measured in duplicates.
(§4) N2a cells were cultured on 24-well plate inserts (0.5 μm pore, Costar) at 5×10^5 cells/cm^2 and then transfected with the APP770 plasmid simultaneously with siRNA for nSMase2 or SMS2 by using a Lipofectamine-2000. After 24 hours from the transfection, inserts were placed onto wells containing BV-2 cells. After an additional 24 hours of incubation, Aβ levels in the medium were measured by ELISA. Intracellular Aβ levels in BV-2 cells were also measured using ELISA after solubilization in guanidine HCl buffer as described above.
(An ELISA detects its analyte on a solid surface through an enzyme-linked reagent.)

The subject of data set [4] is N2a-APP cells. As to the kind of experiment: Western blot of 100,000×g pellets from media of N2a-APP cells transfected with siRNA. Format: cell-based, murine. Conditions: for levels of released exosomes, estimated by the amounts of Alix and Tsg101: siRNA knockdown. As to the method:
as §3, §4

Data set [5] deals with N2a cells and primary cultured nerve cells. As to the kind of experiment: Measurement of exosome release after drug treatment (Western blot of Alix, Tsg101, GM1 in 100,000×g pellets). Format: cell-based, murine. Conditions: 24 hours in serum-free medium; imipramine 10 μM, GW4869 10 μM, D609 50 μM. As to the method:
as §1, §2, §3
(Immunoblotting shows a protein as a band on a membrane.)

Data set [6] concerns BV-2 cells or primary cultured microglia. As to the kind of experiment: Fluorescence staining and internalization assay of PKH26-labeled exosomes. Format: cell-based, murine.
The test system is the same in data set [7]. Description: Aβ42 uptake into microglia (ELISA). Format: cell-based, murine.
Where [8] appears, read: in the presence of BV-2 cells in the lower wells, 24 hours.

Consider “nSMase1 siRNA: Stealth RNAi siRNA (Invitrogen) for nSMase1, sense 5′-AAUAGAACCACAUCUGCAUUCUUGG-3′ (antisense CCAAGAAUGCAGAUGUGGUUCUAUU; Commercial Stealth RNAi siRNA, modifications not given here)”, for which the “exosome release / secretion after siRNA knockdown” value (“exosome release / secretion” for short) in data set [1] is reported as “did not change”.

“aSMase siRNA: Stealth RNAi siRNA (Invitrogen) for aSMase, sense 5′-AUUGGUUUCCCUUUAUGAAGGGAGG-3′ (antisense CCUCCCUUCAUAAAGGGAAACCAAU; Commercial Stealth RNAi siRNA, modifications not given here)”: in data set [1], the “exosome release / secretion” value is “did not change”.

For the molecule `CCCCCCCCCCCCC/C=C/[C@@H](O)[C@H](CO)NC(=O)CCCCC` [C6-ceramide, N-hexanoyl-D-erythro-sphingosine], the “release levels of exosomes” value in data set [1] (C6-ceramide 50 μM or bacterial SMase 100 μU/ml, 24 hours) is on record as “significantly increased”.

Take “nSMase2 siRNA: Stealth RNAi siRNA (Invitrogen) for nSMase2, sense 5′-AAUCGAUGUAGAUCUUGAUCUGAGG-3′ (antisense CCUCAGAUCAAGAUCUACAUCGAUU; commercial Stealth RNAi siRNA, chemistry not given here)”: the “exosome release / secretion” value in data set [1] is “reduced”. Also, the “Aβ fibrillogenesis (ThT fluorescence) by exosomes purified from treated cultures, compared with controls” value (from here on “Aβ fibrillogenesis … compared with controls”) in data set [2] is given as “significantly reduced”. The “extracellular Aβ levels” value in data set [3] is recorded as “unchanged”. Further, the “levels of released exosomes, estimated by the amounts of Alix and Tsg101” value in data set [4] was “obviously modulated”.

Turning to “SMS2 siRNA: Stealth RNAi siRNA (Invitrogen) for SMS2, sense 5′-AUACAUAGUUAUACAGCGAUACAGG-3′ (antisense CCUGUAUCGCUGUAUAACUAUGUAU; commercial Stealth RNAi siRNA, chemistry not given here)”, in data set [1], the “exosome release / secretion” value is reported as “significant increases” and the “ratio of amount of Alix compared with a control” value came to 424.75±45.96%. The “Aβ fibrillogenesis … compared with controls” value in data set [2] was “increased”. Besides, the “Aβ levels in the BV-2 cells” value in data set [3] (compared with treatment with control RNA) was “significantly increased”. In data set [3] (setting [8]), the “level of Aβ40 in the culture media” value is recorded as “significantly decreased” and the “level of Aβ42 in the culture media” value is reported as “significantly decreased”. Further, the “extracellular Aβ levels” value in data set [3] was “unchanged”. Besides, the “Aβ in 100,000×g pellets” value in data set [4] (Western blotting) is “detected”. Also, the “levels of released exosomes, estimated by the amounts of Alix and Tsg101” value in data set [4] is recorded as “obviously modulated”.

For the molecule `CN(C)CCCN1c2ccccc2CCc2ccccc21` [imipramine], the “levels of released exosomes (exosomal markers Alix, Tsg101, GM1 in 100,000×g pellets)” value in data set [5] is recorded as “did not change”.

Take “SMS1 siRNA: Stealth RNAi siRNA (Invitrogen) for SMS1, sense 5′-AUACAUUGUAAUACACCGAUACAGG-3′ (antisense CCUGUAUCGGUGUAUUACAAUGUAU; Commercial Stealth RNAi siRNA, modifications not given here)”: in data set [1], the “exosome release / secretion” value is recorded as “significant increases” and the “ratio of amount of Alix compared with a control” value is reported as 186.02±9.77%.

For `S=C([S-])OC1CC2CC1C1CCCC21.[K+]` (stereo not shown) [D609], the “levels of released exosomes (exosomal markers Alix, Tsg101, GM1 in 100,000×g pellets)” value in data set [5] is listed as “significant enhancement”. The “Aβ fibrillogenesis … compared with controls” value in data set [2] was “increased”.

On to “AV: annexin V, specifically recognizes phosphatidylserine (PS)”, for which the “uptake of exosomes into BV-2 cells or primary cultured microglia” value in data set [6] is reported as “significantly suppressed”. In data set [7], the “Aβ uptake into microglia” value is “significantly suppressed”.

As for `O=C(/C=C/c1ccc(/C=C/C(=O)Nc2ccc(C3=NCCN3)cc2)cc1)Nc1ccc(C2=NCCN2)cc1` [GW4869], the “levels of released exosomes (exosomal markers Alix, Tsg101, GM1 in 100,000×g pellets)” value in data set [5] is “significantly decreased”. The “Aβ fibrillogenesis … compared with controls” value in data set [2] is “significantly reduced”.
